Test results published in ChEMBL document CHEMBL4507268 (2021).

Experiments:
[1] = biological target: Serine/threonine-protein kinase 16 (Homo sapiens) (UniProt O75716); details: Compound concentration 1000.0 nM
[2] = biological target: Mitogen-activated protein kinase 10 (Homo sapiens) (UniProt P53779); details: Compound concentration 1000.0 nM
[3] = biological target: Cyclin-dependent kinase 2 homolog (Plasmodium falciparum (isolate 3D7)) (UniProt P61075); details: Compound concentration 1000.0 nM
[4] = biological target: Calcium/calmodulin-dependent protein kinase type 1B (Homo sapiens) (UniProt Q6P2M8); details: Compound concentration 1000.0 nM
[5] = biological target: SRSF protein kinase 2 (Homo sapiens) (UniProt P78362); details: Compound concentration 1000.0 nM
[6] = biological target: GABA-A receptor; anion channel (Rattus norvegicus) (UniProt O09028+P15431+P18506+P18508+P19969+P20236+P23574+P23576+P28471+P28473+P30191+P62813+P63079+P63138+Q91ZM7+Q9ES14); details: Compound concentration 10.0 uM
[7] = biological target: T1, Serine/threonine-protein kinase MAK (Homo sapiens) (UniProt P20794); details: Compound concentration 1000.0 nM
T1 sequence (whole entry): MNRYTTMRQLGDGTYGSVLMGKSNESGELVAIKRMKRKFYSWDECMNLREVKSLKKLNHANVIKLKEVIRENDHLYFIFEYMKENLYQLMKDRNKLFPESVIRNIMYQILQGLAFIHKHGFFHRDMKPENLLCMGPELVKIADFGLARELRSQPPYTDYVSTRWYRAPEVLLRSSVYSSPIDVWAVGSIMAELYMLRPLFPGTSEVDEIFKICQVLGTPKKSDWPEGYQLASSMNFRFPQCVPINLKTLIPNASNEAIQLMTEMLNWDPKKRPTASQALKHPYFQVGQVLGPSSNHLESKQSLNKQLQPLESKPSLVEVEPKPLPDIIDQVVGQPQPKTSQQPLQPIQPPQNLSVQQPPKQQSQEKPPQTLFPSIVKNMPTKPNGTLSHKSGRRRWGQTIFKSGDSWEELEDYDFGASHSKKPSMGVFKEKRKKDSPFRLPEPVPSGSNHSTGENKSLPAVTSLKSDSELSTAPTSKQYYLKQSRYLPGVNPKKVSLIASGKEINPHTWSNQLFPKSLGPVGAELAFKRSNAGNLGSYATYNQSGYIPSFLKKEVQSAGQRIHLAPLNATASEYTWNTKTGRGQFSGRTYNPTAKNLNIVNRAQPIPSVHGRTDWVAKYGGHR

[8] = biological target: T2, Serine/threonine-protein kinase Sgk1 (Homo sapiens) (UniProt O00141); details: Compound concentration 1000.0 nM
T2 sequence (whole entry): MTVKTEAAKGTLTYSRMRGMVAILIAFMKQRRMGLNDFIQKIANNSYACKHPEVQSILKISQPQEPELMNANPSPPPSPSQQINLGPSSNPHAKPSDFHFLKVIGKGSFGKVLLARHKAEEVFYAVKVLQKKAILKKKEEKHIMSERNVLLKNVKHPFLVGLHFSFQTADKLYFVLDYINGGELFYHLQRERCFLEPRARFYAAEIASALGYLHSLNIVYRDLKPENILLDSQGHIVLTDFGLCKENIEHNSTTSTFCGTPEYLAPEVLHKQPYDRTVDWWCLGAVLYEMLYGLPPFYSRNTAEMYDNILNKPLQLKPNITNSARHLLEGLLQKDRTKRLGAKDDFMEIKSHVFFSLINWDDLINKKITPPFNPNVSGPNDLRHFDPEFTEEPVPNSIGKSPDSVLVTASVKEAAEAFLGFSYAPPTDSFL

[9] = biological target: Ribosomal protein S6 kinase beta-1 (Homo sapiens) (UniProt P23443); details: Compound concentration 1000.0 nM
[10] = biological target: Atypical kinase COQ8A, mitochondrial (Homo sapiens) (UniProt Q8NI60); details: Compound concentration 1000.0 nM
[11] = biological target: T3, NUAK family SNF1-like kinase 1 (Homo sapiens) (UniProt O60285); details: Compound concentration 1000.0 nM
T3 sequence (whole entry): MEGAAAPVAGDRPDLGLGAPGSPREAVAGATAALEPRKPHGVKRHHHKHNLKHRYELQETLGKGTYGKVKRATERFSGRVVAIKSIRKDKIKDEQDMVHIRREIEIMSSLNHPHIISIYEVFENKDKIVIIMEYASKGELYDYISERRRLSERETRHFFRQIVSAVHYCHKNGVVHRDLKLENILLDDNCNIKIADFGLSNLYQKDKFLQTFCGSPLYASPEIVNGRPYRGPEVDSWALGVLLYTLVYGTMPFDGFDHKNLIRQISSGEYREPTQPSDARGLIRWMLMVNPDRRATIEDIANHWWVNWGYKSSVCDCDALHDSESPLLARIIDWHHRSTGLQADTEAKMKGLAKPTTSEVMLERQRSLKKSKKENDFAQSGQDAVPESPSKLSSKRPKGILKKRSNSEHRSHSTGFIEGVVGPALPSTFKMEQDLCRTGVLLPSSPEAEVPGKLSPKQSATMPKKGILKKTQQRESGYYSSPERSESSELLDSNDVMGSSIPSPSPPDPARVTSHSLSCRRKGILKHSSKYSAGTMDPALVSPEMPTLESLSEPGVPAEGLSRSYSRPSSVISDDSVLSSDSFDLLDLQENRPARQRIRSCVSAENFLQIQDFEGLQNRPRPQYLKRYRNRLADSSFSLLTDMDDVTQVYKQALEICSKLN

Chain of Serine/threonine-protein kinase 16 (Homo sapiens) (O75716 whole entry): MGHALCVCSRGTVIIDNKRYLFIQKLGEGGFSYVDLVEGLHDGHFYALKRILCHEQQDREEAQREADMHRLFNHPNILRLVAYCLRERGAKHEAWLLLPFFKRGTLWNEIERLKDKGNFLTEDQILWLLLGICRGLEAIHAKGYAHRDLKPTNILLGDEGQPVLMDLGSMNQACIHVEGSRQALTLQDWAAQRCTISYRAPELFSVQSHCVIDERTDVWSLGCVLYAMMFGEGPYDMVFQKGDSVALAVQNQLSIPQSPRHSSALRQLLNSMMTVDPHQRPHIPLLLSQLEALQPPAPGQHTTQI
Chain of Mitogen-activated protein kinase 10 (Homo sapiens) (P53779 whole entry): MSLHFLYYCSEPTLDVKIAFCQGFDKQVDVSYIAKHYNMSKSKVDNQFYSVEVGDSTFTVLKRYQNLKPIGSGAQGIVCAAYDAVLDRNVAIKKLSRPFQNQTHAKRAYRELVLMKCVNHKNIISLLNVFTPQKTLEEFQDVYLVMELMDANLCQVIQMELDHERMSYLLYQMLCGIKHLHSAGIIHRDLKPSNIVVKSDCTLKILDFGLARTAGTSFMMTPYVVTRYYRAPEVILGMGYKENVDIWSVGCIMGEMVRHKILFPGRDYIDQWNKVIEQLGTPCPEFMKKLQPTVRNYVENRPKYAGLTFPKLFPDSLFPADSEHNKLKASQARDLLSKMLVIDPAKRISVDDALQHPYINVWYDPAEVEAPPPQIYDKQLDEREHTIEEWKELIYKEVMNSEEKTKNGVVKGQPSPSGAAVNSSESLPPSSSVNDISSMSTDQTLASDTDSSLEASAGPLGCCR
Chain of Ribosomal protein S6 kinase beta-1 (Homo sapiens) (P23443 whole entry, looked up): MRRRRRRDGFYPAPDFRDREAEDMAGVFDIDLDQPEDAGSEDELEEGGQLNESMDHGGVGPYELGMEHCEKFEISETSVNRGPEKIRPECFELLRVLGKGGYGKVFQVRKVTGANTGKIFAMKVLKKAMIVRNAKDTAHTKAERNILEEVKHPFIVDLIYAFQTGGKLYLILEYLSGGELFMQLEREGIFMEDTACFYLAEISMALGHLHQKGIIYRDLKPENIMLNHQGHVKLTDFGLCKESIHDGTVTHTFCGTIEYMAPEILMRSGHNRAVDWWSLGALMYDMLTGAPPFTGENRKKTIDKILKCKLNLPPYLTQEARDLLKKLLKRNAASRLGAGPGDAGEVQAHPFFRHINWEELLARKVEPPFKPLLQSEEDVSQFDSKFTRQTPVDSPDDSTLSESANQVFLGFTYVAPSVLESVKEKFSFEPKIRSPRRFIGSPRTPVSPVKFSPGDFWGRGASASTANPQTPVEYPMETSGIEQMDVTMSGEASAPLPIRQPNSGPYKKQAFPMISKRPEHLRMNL
Chain of Atypical kinase COQ8A, mitochondrial (Homo sapiens) (Q8NI60 163-647 limits assumed): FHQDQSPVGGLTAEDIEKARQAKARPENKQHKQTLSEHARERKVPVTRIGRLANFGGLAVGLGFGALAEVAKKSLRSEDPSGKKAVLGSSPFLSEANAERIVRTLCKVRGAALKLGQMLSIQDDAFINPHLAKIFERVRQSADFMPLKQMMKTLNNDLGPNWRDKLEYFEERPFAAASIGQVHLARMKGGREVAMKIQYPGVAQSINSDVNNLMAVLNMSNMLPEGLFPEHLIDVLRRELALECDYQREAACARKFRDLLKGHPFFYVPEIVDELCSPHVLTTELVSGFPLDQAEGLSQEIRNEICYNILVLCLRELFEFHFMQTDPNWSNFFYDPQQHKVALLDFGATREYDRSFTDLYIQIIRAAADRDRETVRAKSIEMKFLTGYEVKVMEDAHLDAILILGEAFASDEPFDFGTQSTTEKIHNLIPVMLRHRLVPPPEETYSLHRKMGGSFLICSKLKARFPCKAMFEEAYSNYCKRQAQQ
Chain of Cyclin-dependent kinase 2 homolog (Plasmodium falciparum (isolate 3D7)) (P61075 whole entry): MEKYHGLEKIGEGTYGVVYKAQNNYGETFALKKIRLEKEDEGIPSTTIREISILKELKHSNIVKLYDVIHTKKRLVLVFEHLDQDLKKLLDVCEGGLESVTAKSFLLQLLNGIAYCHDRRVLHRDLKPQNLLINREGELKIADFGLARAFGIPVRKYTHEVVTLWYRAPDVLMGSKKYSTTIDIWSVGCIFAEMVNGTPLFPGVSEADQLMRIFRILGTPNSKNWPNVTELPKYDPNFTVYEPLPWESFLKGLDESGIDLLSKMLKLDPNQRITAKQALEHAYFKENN
Chain of Calcium/calmodulin-dependent protein kinase type 1B (Homo sapiens) (Q6P2M8 whole entry): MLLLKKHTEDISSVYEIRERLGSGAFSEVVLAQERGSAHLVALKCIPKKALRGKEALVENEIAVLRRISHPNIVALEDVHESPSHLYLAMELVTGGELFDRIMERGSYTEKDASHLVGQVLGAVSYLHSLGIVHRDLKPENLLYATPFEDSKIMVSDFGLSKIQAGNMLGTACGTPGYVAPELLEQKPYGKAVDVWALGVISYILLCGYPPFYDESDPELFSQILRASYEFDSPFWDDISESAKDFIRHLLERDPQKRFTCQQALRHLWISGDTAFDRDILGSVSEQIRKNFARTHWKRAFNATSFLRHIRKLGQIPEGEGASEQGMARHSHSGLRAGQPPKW
Chain of SRSF protein kinase 2 (Homo sapiens) (P78362 whole entry, looked up): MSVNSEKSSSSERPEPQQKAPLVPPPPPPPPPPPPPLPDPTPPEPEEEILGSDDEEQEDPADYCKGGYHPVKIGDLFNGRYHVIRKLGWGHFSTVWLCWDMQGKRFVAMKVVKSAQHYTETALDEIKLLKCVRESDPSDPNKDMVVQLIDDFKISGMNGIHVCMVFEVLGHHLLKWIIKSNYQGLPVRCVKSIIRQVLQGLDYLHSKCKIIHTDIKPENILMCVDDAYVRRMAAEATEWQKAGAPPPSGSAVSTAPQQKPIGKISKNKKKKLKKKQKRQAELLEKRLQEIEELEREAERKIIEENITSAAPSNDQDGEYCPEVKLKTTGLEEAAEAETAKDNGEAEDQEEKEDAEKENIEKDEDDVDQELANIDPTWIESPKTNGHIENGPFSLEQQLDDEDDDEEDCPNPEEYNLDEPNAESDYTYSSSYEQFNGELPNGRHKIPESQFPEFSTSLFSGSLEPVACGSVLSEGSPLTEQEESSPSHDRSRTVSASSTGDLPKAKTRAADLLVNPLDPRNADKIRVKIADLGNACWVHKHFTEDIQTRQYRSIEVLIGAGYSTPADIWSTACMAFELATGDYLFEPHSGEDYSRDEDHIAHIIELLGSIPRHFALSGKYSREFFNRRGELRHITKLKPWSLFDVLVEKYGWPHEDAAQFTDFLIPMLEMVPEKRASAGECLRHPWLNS

Cc1nc(C2CCN(C(=O)c3ccc(OC(F)(F)F)cc3N)CC2)c2ncc(N3CCN(C)CC3)cc2n1 [BAY-693]
inactive: residual activity [1] 100% | residual activity [2] 100% | residual activity [3] 100% | residual activity [4] 100% | residual activity [5] 74% | inhibition [6] -1.64% | residual activity [7] 99% | residual activity [8] 100% | residual activity [9] 99% | residual activity [10] 100% | residual activity [11] 95%

CN1CCN(c2cnc3c(C4CCN(C(=O)c5ccc(OC(F)(F)F)cc5N)CC4)ncnc3c2)CC1 [BAY-885]
inactive: residual activity [1] 100% | residual activity [2] 100% | residual activity [3] 100% | residual activity [4] 100% | residual activity [5] 78% | inhibition [6] 0.38% | residual activity [7] 100% | residual activity [8] 100% | residual activity [9] 90% | residual activity [10] 100% | residual activity [11] 100%
